# Experiment: Aqueous kinetic solubility from a solution of 10 mM DMSO in phosphate buffered saline (PBS) at pH 7.4
# Assay type: physicochemical
# Settings: PBS pH 7.4, 25° C., target concentration 250 μM, 2.5% DMSO, UV quantification at 215 nm, read-out: Kinetic sol. PBS pH 7.4
# Procedure: Aqueous kinetic solubility of derivative compounds of the benzoic acid starting from a solution of 10 mM DMSO in phosphate buffered saline (PBS) at pH 7.4
# Aliquots of 30 μL of stock solution of the test compound in 10 mM DMSO were incubated in phosphate buffered saline (PBS) at pH 7.4 at 25° C. for 24 hours. After centrifugation, the compound dissolved in the supernatant was quantified by […].
# The target concentration was 250 μM with a final concentration of 2.5% DMSO. Aqueous kinetic solubility was determined by UV quantification at 215 nm. The kinetic solubility was then calculated by dividing the peak area of the supernatant by the peak area of the reference and multiplying by the reference concentration (μM) and the dilution factor (1.25).
row,solubility kinetic at 24 h,SMILES
1,>250 µM,"CN(C)S(=O)(=O)c1cc(C(=O)O)ccc1NCCCCCCCC(F)(F)F [Compound 1, 3-(dimethylsulfamoyl)-4-(8,8,8-trifluorooctylamino)benzoic acid]"
2,238 µM,CCCCCCNc1ccc(C(=O)O)cc1S(N)(=O)=O [Compound 2]
3,>250 µM,CCCCCCCCNc1ccc(C(=O)O)cc1S(N)(=O)=O [Compound 3]
4,247 µM,CCCCCCNc1ccc(C(=O)O)cc1S(=O)(=O)NC [Compound 4]
5,243 µM,CCCCCCNc1ccc(C(=O)O)cc1S(=O)(=O)N(C)C [Compound 5]
6,>250 µM,CN(C)S(=O)(=O)c1cc(C(=O)O)ccc1NCCC(C)(C)C [Compound 6]
7,245 µM,CN(C)S(=O)(=O)c1cc(C(=O)O)ccc1NCCCC(F)(F)F [Compound 7]
8,249 µM,CN(C)S(=O)(=O)c1cc(C(=O)O)ccc1NCCCCCC(F)(F)F [Compound 8]
9,237 µM,COCCNc1ccc(C(=O)O)cc1S(=O)(=O)N(C)C [Compound 9]
10,247 µM,COCCCCNc1ccc(C(=O)O)cc1S(=O)(=O)N(C)C [Compound 10]
11,>250 µM,COCCCCCCNc1ccc(C(=O)O)cc1S(=O)(=O)N(C)C [Compound 11]
12,223 µM,O=C(O)c1ccc(NCCCCCCCC(F)(F)F)c(S(=O)(=O)NC2CCCC2)c1 [Compound 12]
13,244 µM,O=C(O)c1ccc(NCCCCCCCC(F)(F)F)c(S(=O)(=O)N2CCOCC2)c1 [Compound 13]
14,244 µM,O=C(O)c1ccc(NCCCCCCCC(F)(F)F)c(S(=O)(=O)NC2CCOCC2)c1 [Compound 14]
15,241 µM,CN(C)S(=O)(=O)c1cc(C(=O)O)c(Cl)cc1NCCCCCCCC(F)(F)F [Compound 16]
16,242 µM,CNS(=O)(=O)c1cc(C(=O)O)ccc1NCCCCCCCC(F)(F)F [Compound 18]
17,188 µM,COc1cc(NCCCCCCCC(F)(F)F)c(S(=O)(=O)N(C)C)cc1C(=O)O [Compound 20]

# Same assay, conditions: aqueous buffer, PBS pH 7.4, 25° C., target concentration 250 μM, 2.5% DMSO, UV quantification at 215 nm, read-out: Kinetic sol. PBS pH 7.4
row,solubility kinetic at 24 h,SMILES
1,> 250 µM,CN(C)S(=O)(=O)c1cc(C(=O)O)ccc1N1CCN(CCCCC(F)(F)F)CC1 [Compound 15]
2,> 250 µM,C=CCCCCCNc1ccc(C(=O)O)cc1S(=O)(=O)N(C)C [Compound 17]
3,> 250 µM,NS(=O)(=O)c1cc(C(=O)O)c(O)cc1NCCCCCCCC(F)(F)F [Compound 19]

# Reference: patent US20260297022A1, “PROCESS FOR THE PREPARATION OF SULFAMOYLBENZOIC ACID DERIVATIVES” (IAMA THERAPEUTICS S.R.L., priority 2023, published 2026)
